Experiments:
C57BL/6 mice (wild-type) = experiment: post-prandial serum TG in C57BL/6 mice after oral gavage with vegetable oil; assay type: in vivo; conditions: 1 μmoL/kg IP or SQ 30 min before gavage with vegetable oil (10 μL/gram)
Protocol: (§1) C57Bl/6 mice (wild-type), apoC-II knockout (apoC-II KO) mice, and apoC-III transgenic mice were used for in vivo study. The C57Bl/6 mice (wild-type) were purchased from Taconic Biosciences Inc. The apoC-II KO mice were created as described in Sakurai et al., J Pharmacol Exp Ther 356:341-353, 2016. The apoC-III transgenic mice were generated by overexpressing human apoC-III in C57Bl/6 mice. See Qu et al., J. Lipid Res. 48:1476-1487, 2007.
(§2) Mice were fasted overnight (approximately 12 hours) before the study and 6 hours during the study, the next day. The apoC-II mimetic peptides were synthetically produced and free of biological contamination (not available as FDA approved compounds/treatment). Peptides were produced and used in sterile conditions and filtered by 0.2 nm filter before injections in a single dose 1-10 μmol/kg body weight (B. W.) administered either subcutaneous injection (S.Q. or S.C.), intraperitoneal injection (I.P.) or intravenous injection (I.V.) (in a sterile, pharmaceutical grade PBS solution at a volume ≤200 μL) as described in Sakurai et al., J Pharmacol Exp Ther 356:341-353, 2016.
In some experiments, each animal received 20% Intralipid (FDA approved, Fresenius Kabi, Uppsala, Sweden) in a single dose either by oral gavage (using special sterile single-use non-toxic animal feeding needles) in a dose 10-20 μL/gram body weight (B.W.) (Tuzcu et al. Drug Chem Toxicol 37: 261-267, 2014; Kusminski et al. Nature Medicine 18: 1539-1549, 2012), or by intraperitoneal injection in a single bolus of 0.1-1.0 mL (Mahadero et al. American J Surgery 164: 45-50, 1992), or by intragastric administration of a dietetic commercially-available liquid oil (food grade vegetable, corn, soy or olive oil) in a single dose 10-20 μL/gram body weight. These oils were a source of TG—when absorbed TG tends to be broken down within 3 h (peak in 30 min) (Kritchevsky Nutritional Biochemistry 6:172-178, 1995). Blood samples (20-30 μL) were obtained from the retro-orbital plexus at time points: −1 h, 0 h, 1 h, 3 h, 6 h and 24 h for measurements of lipids. Mice were returned to metabolic cages after the 6 h time point where the food was put back. Once the study was completed (after 24 hours from the fat administration), mice were euthanized and organs collected.

[1] = tested on: lipoproteins of human serum; experiment: incubation of human serum with exogenous apoC-II-a; assay type: binding; conditions: doses comparable to that achieved in vivo in mice
LPL = target: T1, LPL (Bos taurus, UniProt P11151); experiment: addition of exogenous LPL to serum samples collected after IP injection with Intralipid; assay type: biochemical
T1 sequence (P11151 29-478): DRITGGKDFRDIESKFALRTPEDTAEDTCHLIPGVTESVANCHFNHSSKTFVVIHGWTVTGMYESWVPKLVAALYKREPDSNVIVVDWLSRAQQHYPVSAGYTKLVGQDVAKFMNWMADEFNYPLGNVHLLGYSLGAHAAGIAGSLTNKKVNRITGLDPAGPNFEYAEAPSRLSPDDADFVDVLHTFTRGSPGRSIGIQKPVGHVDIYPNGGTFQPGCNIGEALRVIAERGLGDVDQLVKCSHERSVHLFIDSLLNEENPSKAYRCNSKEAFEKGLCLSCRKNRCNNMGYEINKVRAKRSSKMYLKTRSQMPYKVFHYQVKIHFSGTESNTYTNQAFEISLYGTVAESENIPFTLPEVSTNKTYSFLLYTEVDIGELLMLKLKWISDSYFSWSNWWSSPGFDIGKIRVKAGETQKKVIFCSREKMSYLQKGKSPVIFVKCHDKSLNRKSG

bovine LPL = target: T2, bovine LPL (Bos taurus, UniProt P11151); experiment: in vitro LPL assay using apoC-II deficient patient sera as substrate; assay type: biochemical
T2 sequence (P11151 29-478): T1 sequence (P11151 29-478)
Method in brief: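 Bovine LPL incubated with peptide and substrate (3 mg/dL TG Intralipid or 1:100-diluted apoC-II-deficient human serum) in PBS with BSA, 30 min on ice then 1 h at 37° C. Released free fatty acids quantified by colorimetric NEFA assay (absorbance 550 and 660 nm) against an oleic acid standard.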

apoC-III transgenic mice [2] = experiment: plasma TG and apoC-III of apoC-III transgenic mice after peptide injection; assay type: in vivo
Protocol: as §1, §2

apoC-III transgenic mice [3] = experiment: serum TG of apoC-III transgenic mice after Intralipid injection; assay type: in vivo; conditions: peptide IP 1 hour after Intralipid, 5 and 10 μmole/kg, FIG. 39
Protocol: as §1
as §2, with “2016. […]” for “2016.”

[4] = ELISA, 5 μmole/kg, Day 1 and Day 5, 3 h after injection

Sequence | post-prandial TG rise (C57BL/6 mice (wild-type)) | binding to lipoproteins and apolipoprotein displacement [1] | lipoprotein particles from treated mice as substrates for LPL (LPL) | LPL activation compared with full length apoC-II protein (bovine LPL; 10 pM to 10 μM, FIG. 51) | LPL activation / TG hydrolysis (bovine LPL; FIG. 52) | apoC-III level on HDL (apoC-III transgenic mice [2]; [4]) | apoC-III level on VLDL (apoC-III transgenic mice [2]; [4]) | plasma TG compared to control (apoC-III transgenic mice [2]; repeat IP injection at 24 h intervals for 5 days, 5 μmole/kg, 1 h, 3 h, 6 h after injection on Day 1 and Day 5) | plasma TG (apoC-III transgenic mice [2]; single intraperitoneal injection, 1, 5 and 10 μmole/kg, FIG. 38B) | time of maximum decrease of plasma TG (apoC-III transgenic mice [2]; single intraperitoneal injection, after the injection) | serum TG increase after Intralipid injection (apoC-III transgenic mice [3])
DWLKAFYDKVAEKLKEAFPAMSTYTGIFTDQVLSVLKGEE (listed as Homo sapiens) [apoC-II-a, excluded from the claimed peptides] | almost completely blunted | binds to all lipoproteins, including HDL and causes the displacement of apoC-I and apoC-III | better substrates for LPL | – | – | – | – | – | – | – | –
DYLKEVFEKLRDLYEKFTPAVSTYTGIFTDQVLSVLKGEE [Delta6PV] | – | – | – | activated LPL in vitro more efficiently than the full length apoC-II protein | activated LPL in vitro | decreased | decreased | lower plasma TG | rapid and marked reduction of plasma TG | about 6 hours | the TG increase was significantly reduced

Reference: patent US11827690B2, “ApoC-II mimetic peptides” (THE UNITED STATES OF AMERICA, as represented by the …, priority 2017, dated 2023)
